For data set [1] the following is noted: cited from earlier work.
The test system of data set [2] is B16-OVA cells / B3Z cells. As to the kind of experiment: B3Z activation assay, recognition of OVA model tumor antigen on B16-OVA cells. Format: cell-based. The settings on record: B16-OVA cells treated (100 μM, 24 hours) then B3Z co-culture 24 h; read-out: increase in recognition of model tumor antigen by B3Z cells. On the procedure: B16-OVA cells are seeded into a 96-well plate and treated with 100 μM […], […] or racemic rimantadine for 24 hours, prior to addition of B3Z cells. After 24 hours of co-culture, medium is removed and 100 μl of lysis buffer [0.155 mM chlorophenol red β-D-galactopyranoside (CPRG) (Roche), 0.125% Nonidet P-40 Alternative (EMDCalbiochem), and 9 mM MgCl2 (Sigma) in PBS] are added. After incubation for 4 hours at 37 °C, the absorbance at 570 nm is determined on a TECAN infinite M200 microplate reader.

In a further data set the test system is MHC class II. Description: MHC class II surface expression on RAW264.7.
The subject of the next data set is MHC I. The settings on record: E5-positive AT-84-E7.
In a further data set the test system is B16-OVA. Description: BrdU incorporation / cell proliferation assay in B16-OVA. In kind it is cell-based. As to conditions: for G0/G1 cell cycle arrest / S phase: BrdU, alone. On the procedure:
(§1) [LEFT OUT]. Louis, MO) (27).
(§2) Cell cycle progression was analyzed on the basis of BrdU incorporation following […] cell staining with BrdU-APC and 7-AAD using BD Pharmingen BrdU Flow Kit. (BD, Franklin Lakes, NJ) according to the manufacture's protocol. Cells are analyzed using flow cytometry. Cell proliferation is assessed by using MTT [3-(4,5-dimethylthiazol-2-yl)-2,5-diphenyltetrazolium bromide]. First, cells are seeded in 96-well plate and cultured for 2-3 days. Next, culture media is replaced with fresh media containing 0.5 mg/ml of MTT (Sigma) and the plates are incubated for 4 hours at 37 °C. Then, purple formazan crystals are dissolved in lysis buffer (4 mM HCl and 0.1% NP-40 in isopropanol) and the absorbance is recorded on a TECAN infiniteM200 microplate reader (Tecan, Männedorf, Switzerland) at a wavelength of 570 nm with absorbance at 650 nm as reference.

Another data set has as its system M2 transmembrane channel. The settings on record: cited from earlier work.
Data set [3] can be described thus: in vivo CNS adverse effects / toxicity (Examples 4 and 5). More on the design: species or system mouse.
The test system of a further data set is Tau. Description: RTqPCR gene expression of Tau. In kind it is cell-based. The method, then: (§3) Total RNA is extracted using TRIzol Reagent (Invitrogen) and reverse transcribed with qScript cDNA Synthesis Kit (Quanta BioSciences, Beverly, MA) according to the manufacturer's instructions. Quantitative PCR analysis is conducted by using KAPA SYBR […] FAST (KAPA Biosystems, Wilmington, MA) on the 7900HT Fast Real-Time PCR System (Applied Biosystems, Foster City, CA).
(Quantitative PCR measures a nucleic acid by following its amplification.)

In another data set the test system is B16-OVA tumor. As to the kind of experiment: mouse tumor model B16-OVA, IP treatment. As to conditions: in combination with anti-PDL1 immunotherapy; B16-OVA tumors.
The test system of data set [4] is murine and human cell lines engineered to express HPV16 E5. Description: cell cycle arrest in cell lines engineered to express HPV16 E5. Format: cell-based. The settings on record: cells expressing HPV16 E5. The method, then: as §2
Data set [5] addresses T1, NR1/NR2B ionotropic receptor (Homo sapiens, UniProt Q05586+Q13224).
T1 construct: expressed in transfected cells
Description: ScreenPatch IonWorks Barracuda electrophysiology assay on NR1/NR2B. Format: cell-based. As to conditions: for relative inhibition of NR2B: comparison of enantiomers and racemate, words. On the procedure:
(§4) Test articles were evaluated for functional effects on ion channels.
(§5) The final DMSO concentration was 0.6%.
(§6) Adjusted to pH 7.2 with CsOH.
(In general: In patch-clamp work, channel activity is measured electrically.)

Another data set concerns MHC. As to the kind of experiment: surface expression of MHC (flow cytometry), multiple cell lines.
The next data set deals with AT-84-E7. Description: BrdU incorporation / cell proliferation assay in AT-84-E7. Format: cell-based. As to conditions: for G0/G1 cell cycle arrest / S phase: BrdU, alone. On the procedure:
as §1, §2

In another data set the test system is tumor. Description: mouse cancer models, general anti-tumor activity. Format: in vivo. The settings on record: alone.
The test system of a further data set is MHC class I. Description: MHC class I surface expression on RAW264.7.
A further data set deals with Stathmin. Description: RTqPCR gene expression of Stathmin. In kind it is cell-based. On the procedure:
as §3

Data set [6] has as its system glutamate, GABA, dopamine receptors. Description: in vivo SPECT receptor binding selectivity (Examples 4 and 5). More on the design: species or system mouse.
The next data set has as its system CAL-27 cells. Description: CAL-27 in vitro MTT proliferation assay. In kind it is cell-based, human. The settings on record: 0, 100, 250 or 500 μM, 24 or 48 hours. The method, then: On day 1, CAL-27 cells were seeded in a 96-well plate (2-4×10^3 cells/well, medium 100 μl/well) and left overnight to allow the cells to attach to the plate. On day 2, varying concentrations of rimantadine (0 μM, 100 μM, 250 μM, or 500 μM) were added to the cells and allowed to incubate for 24 hours or 48 hours. On either day 3 or 4, the culture media was aspirated, and 100 μl/well of MTT solution (comprising an MTT concentration of 0.5 mg/ml; formed by dilution of thiazolyl blue tetrazolium bromide solution (SIGMA, Cat #M2128) with stock solution (5 mg/ml in PBS (−20 °C)) was added to the culture media. The cells were incubated in a CO2 incubator at 37 °C for 3 hours, and the MTT solution was aspirated. 100 μl/well of DMSO was then added and the cells were incubated for about 5 minutes. A OD570 nm (Ref 650 nm) was then read. Results of the experiment are shown in FIG. 2.
In general terms: Tetrazolium assays rely on reduction of a dye to a coloured formazan, in cell work by metabolically active cells.

The target in data set [7] is T2, NR1/NR2A ionotropic receptor (Homo sapiens, UniProt Q05586+Q12879).
T2 construct: expressed in transfected cells
T2 sequence (Q12879 23-1464, other chains not shown): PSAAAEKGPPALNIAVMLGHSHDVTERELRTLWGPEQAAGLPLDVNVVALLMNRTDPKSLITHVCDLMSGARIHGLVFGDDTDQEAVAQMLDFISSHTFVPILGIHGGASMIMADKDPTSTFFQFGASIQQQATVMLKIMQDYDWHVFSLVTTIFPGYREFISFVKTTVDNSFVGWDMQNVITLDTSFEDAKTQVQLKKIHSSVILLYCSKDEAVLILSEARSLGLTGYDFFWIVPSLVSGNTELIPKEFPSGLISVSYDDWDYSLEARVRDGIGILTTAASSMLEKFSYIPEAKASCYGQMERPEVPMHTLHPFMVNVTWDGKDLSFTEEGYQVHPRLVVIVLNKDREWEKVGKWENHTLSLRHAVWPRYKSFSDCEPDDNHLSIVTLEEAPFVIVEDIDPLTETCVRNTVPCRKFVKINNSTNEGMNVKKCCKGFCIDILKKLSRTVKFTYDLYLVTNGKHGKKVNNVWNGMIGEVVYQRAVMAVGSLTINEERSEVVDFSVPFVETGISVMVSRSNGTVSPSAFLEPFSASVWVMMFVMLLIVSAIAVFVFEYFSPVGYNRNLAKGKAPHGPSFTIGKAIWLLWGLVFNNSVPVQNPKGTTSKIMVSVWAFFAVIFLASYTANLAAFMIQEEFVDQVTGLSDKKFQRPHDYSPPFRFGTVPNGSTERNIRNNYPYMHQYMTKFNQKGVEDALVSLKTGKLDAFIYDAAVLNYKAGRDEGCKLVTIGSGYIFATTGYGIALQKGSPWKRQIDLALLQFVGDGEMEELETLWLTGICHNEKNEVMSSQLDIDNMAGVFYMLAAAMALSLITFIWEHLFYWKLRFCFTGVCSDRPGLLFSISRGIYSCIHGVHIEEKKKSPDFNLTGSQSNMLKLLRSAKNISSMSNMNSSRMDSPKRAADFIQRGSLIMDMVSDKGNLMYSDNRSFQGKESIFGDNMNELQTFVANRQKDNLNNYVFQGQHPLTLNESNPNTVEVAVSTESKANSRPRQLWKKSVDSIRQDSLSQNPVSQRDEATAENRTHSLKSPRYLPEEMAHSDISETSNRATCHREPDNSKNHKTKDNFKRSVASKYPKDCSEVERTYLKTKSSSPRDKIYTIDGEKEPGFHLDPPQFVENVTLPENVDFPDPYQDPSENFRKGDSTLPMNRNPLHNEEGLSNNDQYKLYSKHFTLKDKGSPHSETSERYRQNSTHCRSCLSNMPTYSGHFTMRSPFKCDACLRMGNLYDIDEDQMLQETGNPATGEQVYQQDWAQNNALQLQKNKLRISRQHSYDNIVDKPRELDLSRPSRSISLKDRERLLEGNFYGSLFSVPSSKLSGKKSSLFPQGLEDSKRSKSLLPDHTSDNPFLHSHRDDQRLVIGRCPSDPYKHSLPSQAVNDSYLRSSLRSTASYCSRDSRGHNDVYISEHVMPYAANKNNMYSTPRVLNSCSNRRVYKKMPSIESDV
As to the kind of experiment: ScreenPatch IonWorks Barracuda electrophysiology assay on NR1/NR2A. In kind it is cell-based. The method, then: as §4, §5, §6

The test system of another data set is D2/3 dopamine receptor. The settings on record: radioligand; cited from earlier work.
A further data set has as its system CAL-33. As to the kind of experiment: BrdU incorporation and proliferation assays in CAL-33. Format: cell-based, human. The settings on record: alone. On the procedure:
as §1, §2

The test system of a further data set is CAL-27. Description: BrdU incorporation and proliferation assays in CAL-27. Format: cell-based, human. The settings on record: alone. The method, then:
as §1, §2

A further data set has as its system SCC-47. Description: BrdU incorporation and proliferation assays in SCC-47. Format: cell-based, human. As to conditions: alone. On the procedure:
as §1, §2

Setting [8] is: agonist format, first application, data not shown.

T1 sequence (Q13224 27-1484, other chains not shown): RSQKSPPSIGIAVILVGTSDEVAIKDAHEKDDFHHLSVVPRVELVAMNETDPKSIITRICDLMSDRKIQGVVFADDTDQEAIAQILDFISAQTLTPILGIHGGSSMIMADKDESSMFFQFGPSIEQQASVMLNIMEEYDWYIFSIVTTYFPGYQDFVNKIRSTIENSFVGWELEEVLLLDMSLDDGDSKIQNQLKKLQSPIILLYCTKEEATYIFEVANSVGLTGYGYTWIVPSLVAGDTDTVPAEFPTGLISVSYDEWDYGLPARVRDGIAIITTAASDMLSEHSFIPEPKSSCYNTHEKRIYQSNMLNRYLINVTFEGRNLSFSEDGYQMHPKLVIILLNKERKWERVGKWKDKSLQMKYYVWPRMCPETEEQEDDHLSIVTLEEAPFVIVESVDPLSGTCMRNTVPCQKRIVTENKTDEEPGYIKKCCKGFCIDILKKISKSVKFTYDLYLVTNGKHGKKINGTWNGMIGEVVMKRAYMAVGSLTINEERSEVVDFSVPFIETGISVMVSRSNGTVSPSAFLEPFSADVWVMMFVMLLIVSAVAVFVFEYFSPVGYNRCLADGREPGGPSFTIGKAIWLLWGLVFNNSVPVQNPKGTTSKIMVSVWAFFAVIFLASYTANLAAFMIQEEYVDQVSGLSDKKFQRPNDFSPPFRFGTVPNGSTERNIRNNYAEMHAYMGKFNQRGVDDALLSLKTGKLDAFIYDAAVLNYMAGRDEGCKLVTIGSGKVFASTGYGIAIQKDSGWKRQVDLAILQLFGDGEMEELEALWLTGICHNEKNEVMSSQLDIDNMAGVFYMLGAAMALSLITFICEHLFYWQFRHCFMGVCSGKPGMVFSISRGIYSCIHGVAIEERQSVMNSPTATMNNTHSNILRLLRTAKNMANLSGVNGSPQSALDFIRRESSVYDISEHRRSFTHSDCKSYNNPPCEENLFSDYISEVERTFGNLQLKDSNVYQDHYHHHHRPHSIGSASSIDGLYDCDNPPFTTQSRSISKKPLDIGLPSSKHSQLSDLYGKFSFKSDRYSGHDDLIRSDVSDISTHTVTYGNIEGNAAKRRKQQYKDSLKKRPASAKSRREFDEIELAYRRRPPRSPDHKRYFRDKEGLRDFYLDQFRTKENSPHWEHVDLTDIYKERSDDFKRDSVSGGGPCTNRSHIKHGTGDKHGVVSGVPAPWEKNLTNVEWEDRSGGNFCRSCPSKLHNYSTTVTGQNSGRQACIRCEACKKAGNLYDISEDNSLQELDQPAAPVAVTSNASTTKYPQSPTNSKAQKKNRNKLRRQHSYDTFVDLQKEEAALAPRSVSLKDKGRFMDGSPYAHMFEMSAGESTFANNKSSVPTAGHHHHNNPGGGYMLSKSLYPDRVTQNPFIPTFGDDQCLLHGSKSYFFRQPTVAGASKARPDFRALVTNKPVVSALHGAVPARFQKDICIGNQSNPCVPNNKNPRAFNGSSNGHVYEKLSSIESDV

In the case of `CC(N)C12CC3CC(CC(C3)C1)C2` (racemic) [racemic rimantadine], the side effects result in data set [1] (currently prescribed doses) was “central nervous system (CNS) side effects, sleep side effects, gastrointestinal side effects, and atropinic side effects”. Also, the “most commonly cited toxicities for discontinuation of treatment” value in data set [1] (in vivo) is “Anxiety and insomnia”.

Take `C[C@@H](N)C12CC3CC(CC(C3)C1)C2` [2-R rimantadine]: the fold induction at 100 µM in data set [2] is 3. For the same compound, the “MHC class II surface expression” value in the data set with MHC class II is recorded as “significant increases”. Also, the “cell surface expression of MHC I” value in the data set with MHC I was “restored”. Also, in the data set with B16-OVA, the cell proliferation entry was “Suppression of cell proliferation”, the “G0/G1 cell cycle arrest” value is given as “significant increases in G0/G1 cell cycle arrest” and the S phase result is recorded as “significant decreases in S phase”. Besides, the “binding affinity for M2 channel pore” value in the data set on M2 transmembrane channel (one study, R- vs S-enantiomer) was “greater affinity than the S-enantiomer”. In data set [3] (Example 4), the “incidence of central nervous system adverse effects” value was “higher incidence of central nervous system adverse effects”. The Tau gene expression entry in the data set on Tau is given as “Decreases in microtubule associated molecule Tau”. The survival result in the data set on B16-OVA tumor is on record as “significant improvement in survival”. For the same compound, the cell cycle arrest entry in data set [4] is given as “induce cell cycle arrest”. Also, in data set [5], the “relative inhibition of NR2B” value is on record as “greater ability to inhibit NR2B as compared to racemic rimantadine”. In the data set on MHC, the “surface expression of MHC” value is given as “Significant increases in surface expression of MHC”. Besides, in the data set with AT-84-E7, the cell proliferation entry is “Suppression of cell proliferation”, the “G0/G1 cell cycle arrest” value is “significant increases in G0/G1 cell cycle arrest” and the S phase result is listed as “significant decreases in S phase”. In addition, the anti-tumor activity entry in the data set with tumor was “significantly decreased tumor growth”. Moreover, in the data set with MHC class I, the “MHC class I surface expression” value is “significant increases”. Further, the Stathmin gene expression result in the data set with Stathmin is “significant decreases”. The “binding selectivity or agonistic behavior to glutamate, GABA, dopamine receptors” value in [6] (Example 4, 10-20 mg/kg IP daily 7 days) is given as “significantly higher binding selectivity or agonistic behavior”.

Take `C[C@H](N)C12CC3CC(CC(C3)C1)C2` [2-S rimantadine]: the fold induction at 100 µM in [2] was 3. For the same compound, the “MHC class II surface expression” value in the data set with MHC class II is listed as “significant increases”. The “cell surface expression of MHC I” value in the data set on MHC I was “restored”. Moreover, the cell proliferation entry in the data set on B16-OVA and in the data set with AT-84-E7 was “Suppression of cell proliferation” throughout. The “G0/G1 cell cycle arrest” value with B16-OVA and with AT-84-E7 was “significant increases in G0/G1 cell cycle arrest” in each case. Besides, the S phase result with B16-OVA and in the data set with AT-84-E7 was “significant decreases in S phase” each time. For the same compound, the “toxicity compared to 2-R rimantadine” value in [3] (Example 4, taken together with Example 2) is recorded as “significantly less toxic”; in data set [3] (Example 5, taken together with Example 2), “significantly less toxic”. Moreover, in data set [3] (Example 5), the “incidence of central nervous system adverse effects” value is recorded as “higher incidence of central nervous system adverse effects”. The Tau gene expression result with Tau was “Decreases in microtubule associated molecule Tau”. In addition, the survival entry with B16-OVA tumor was “significant improvement in survival”. Further, the cell cycle arrest result in data set [4] is on record as “induce cell cycle arrest”. Besides, the “relative inhibition of NR2B” value in data set [5] was “to a lesser degree as compared to 2-R rimantadine and racemic rimantadine”. Besides, in the data set on MHC, the “surface expression of MHC” value is reported as “Significant increases in surface expression of MHC”. The anti-tumor activity result with tumor is listed as “significantly decreased tumor growth”. The “MHC class I surface expression” value with MHC class I was “significant increases”. Moreover, the Stathmin gene expression result in the data set with Stathmin is on record as “significant decreases”. In data set [6] (Example 5, 10-20 mg/kg IP daily 7 days), the “binding selectivity or agonistic behavior to glutamate, GABA, dopamine receptors” value is reported as “significantly higher binding selectivity or agonistic behavior”. Further, the “cancer cell proliferation compared to R-rimantadine or racemic rimantadine” value with CAL-27 cells is “enhanced or equivalent cancer cell proliferation as compared to R-rimantadine or racemic rimantadine”.

As for `NC12CC3CC(CC(C3)C1)C2` [Amantadine], the “agonist effect: activation of NMDA receptors” value in data set [7] (setting [8]) and in data set [5] (setting [8]) was “Neither test articles nor amantadine had produced significant activation of NMDA receptors” each time. The “shift in potency for steady state vs peak currents” value in [7] (suggests open channel block mechanism of inhibition) is “Leftward shift in amantadine potency for steady state currents measurements”.

As for `CCN1CCC[C@H]1CNC(=O)c1c(OC)ccc(I)c1O` [IBZM], the “affinity for the D2/3 dopamine receptor” value in the data set with D2/3 dopamine receptor was “high affinity”.

As for `CC(N)C12CC3CC(CC(C3)C1)C2` (stereo not shown) [rimantadine], the “inhibition of influenza activity” value with M2 transmembrane channel (by binding M2 transmembrane channel and blocking proton transport) is “inhibits influenza activity”. The cell cycle arrest result in the data set with CAL-33, in the data set with CAL-27 and in the data set with SCC-47 was “Significant cell cycle arrest” throughout. In addition, the proliferation result in the data set with CAL-33, with CAL-27 and in the data set with SCC-47 was “decreased proliferation” in each case.
